Key:
[1] = test system: BV-2; test: Anti-neuroinflammatory activity against LPS-stimulated C57BL/6 mouse BV-2 cells assessed as inhibition of NO release at 30 uM preincubated with compound for 4 hrs followed by LPS addition and measured after 24 hrs by Griess reagent based assay relative to control; assay type: functional; conditions: C57BL/6, BV-2, time 28 hrs
[2] = Cytotoxicity against C57BL/6 mouse BV-2 cells assessed as survival rate at 30 uM incubated for 24 hrs by MTT assay relative to control; assay type: toxicity, cell-based; conditions: read-out: Survival

| Structure (SMILES) | inhibition at 30 µM [1] | viability at 24 h, 30 µM [2] |
| --- | --- | --- |
| CCN1C[C@]2(OC(=O)c3ccccc3NC(=O)c3ccc(I)cc3)CC[C@H](OC)[C@]34C1[C@@H](C[C@H]23)[C@@]1(O)C[C@H](OC)[C@H]2C[C@@H]4[C@]1(O)[C@H]2OC | 36.1% | 100% |
| CCN1C[C@]2(OC(=O)c3ccccc3NC(=O)S(=O)(=O)c3ccccc3Cl)CC[C@H](OC)[C@]34C1[C@@H](C[C@H]23)[C@@]1(O)C[C@H](OC)[C@H]2C[C@@H]4[C@]1(O)[C@H]2OC | 7.8% | 100% |
| CCN1C[C@]2(OC(=O)c3ccccc3NC(=O)S(=O)(=O)c3cncc(Br)c3)CC[C@H](OC)[C@]34C1[C@@H](C[C@H]23)[C@@]1(O)C[C@H](OC)[C@H]2C[C@@H]4[C@]1(O)[C@H]2OC | 20.3% | 91.5% |
| CCN1C[C@]2(OC(=O)c3ccccc3NC(=O)S(=O)(=O)c3ccc(Cl)nc3)CC[C@H](OC)[C@]34C1[C@@H](C[C@H]23)[C@@]1(O)C[C@H](OC)[C@H]2C[C@@H]4[C@]1(O)[C@H]2OC | 33.5% | 104% |
| CCN1C[C@]2(OC(=O)c3ccccc3NC(=O)S(=O)(=O)c3ccc(-c4ccccc4)cc3)CC[C@H](OC)[C@]34C1[C@@H](C[C@H]23)[C@@]1(O)C[C@H](OC)[C@H]2C[C@@H]4[C@]1(O)[C@H]2OC | 41.9% | 102% |
| CCN1C[C@]2(OC(=O)c3ccccc3NC(=O)S(=O)(=O)c3ccc(F)cc3)CC[C@H](OC)[C@]34C1[C@@H](C[C@H]23)[C@@]1(O)C[C@H](OC)[C@H]2C[C@@H]4[C@]1(O)[C@H]2OC | 40.6% | 109% |
| CCc1ccc(C(=O)Nc2ccccc2C(=O)OC[C@@]23CC[C@H](OC)[C@]45C([C@@H](C[C@H]24)[C@@]2(O)C[C@H](OC)[C@H]4C[C@@H]5[C@]2(O)[C@H]4O)N(CC)C3)cc1 | 15.5% | 104% |
| CCC(=O)Nc1ccccc1C(=O)O[C@@]12CC[C@H](OC)[C@]34C([C@@H](C[C@H]13)[C@@]1(O)C[C@H](OC)[C@H]3C[C@@H]4[C@]1(O)[C@H]3OC)N(CC)C2 | 19.1% | 96.1% |
| CCN1C[C@]2(OC(=O)c3ccccc3NC(=O)S(=O)(=O)c3ccc(C4CCCCC4)cc3)CC[C@H](OC)[C@]34C1[C@@H](C[C@H]23)[C@@]1(O)C[C@H](OC)[C@H]2C[C@@H]4[C@]1(O)[C@H]2OC | 38.5% | 93.7% |
| CCN1C[C@]2(OC(=O)c3ccccc3NC(=O)c3ccccc3Br)CC[C@H](OC)[C@]34C1[C@@H](C[C@H]23)[C@@]1(O)C[C@H](OC)[C@H]2C[C@@H]4[C@]1(O)[C@H]2OC | 32.5% | 106% |
| CCN1C[C@]2(OC(=O)c3ccccc3NC(=O)S(=O)(=O)/C=C/c3ccccc3)CC[C@H](OC)[C@]34C1[C@@H](C[C@H]23)[C@@]1(O)C[C@H](OC)[C@H]2C[C@@H]4[C@]1(O)[C@H]2OC | 29.4% | 108% |
| CCN1C[C@]2(OC(=O)c3ccccc3NC(=O)c3ccccc3N(C)C)CC[C@H](OC)[C@]34C1[C@@H](C[C@H]23)[C@@]1(O)C[C@H](OC)[C@H]2C[C@@H]4[C@]1(O)[C@H]2OC | 34.7% | 101% |
| CCN1C[C@]2(OC(=O)c3ccccc3NC(=O)S(=O)(=O)c3cccnc3Cl)CC[C@H](OC)[C@]34C1[C@@H](C[C@H]23)[C@@]1(O)C[C@H](OC)[C@H]2C[C@@H]4[C@]1(O)[C@H]2OC | 56.5% | 106% |
| CCCCOC(=O)c1ccccc1NS(=O)(=O)c1cccc(F)c1 | 50.9% | 106% |
| CCN1C[C@]2(OC(=O)c3ccccc3NC(=O)S(=O)(=O)Cc3ccc([N+](=O)[O-])cc3)CC[C@H](OC)[C@]34C1[C@@H](C[C@H]23)[C@@]1(O)C[C@H](OC)[C@H]2C[C@@H]4[C@]1(O)[C@H]2OC | 22.7% | 98.9% |
| CCN1C[C@]2(OC(=O)c3ccccc3NC(=O)C3CCCC3)CC[C@H](OC)[C@]34C1[C@@H](C[C@H]23)[C@@]1(O)C[C@H](OC)[C@H]2C[C@@H]4[C@]1(O)[C@H]2OC | 37.9% | 107% |
| CCN1C[C@]2(OC(=O)c3ccccc3NC(=O)c3ccccc3I)CC[C@H](OC)[C@]34C1[C@@H](C[C@H]23)[C@@]1(O)C[C@H](OC)[C@H]2C[C@@H]4[C@]1(O)[C@H]2OC | 13.1% | 109% |
| CCN1C[C@]2(OC(=O)c3ccccc3NC(=O)S(=O)(=O)c3cccc([N+](=O)[O-])c3)CC[C@H](OC)[C@]34C1[C@@H](C[C@H]23)[C@@]1(O)C[C@H](OC)[C@H]2C[C@@H]4[C@]1(O)[C@H]2OC | 11.7% | 106% |

| Structure (SMILES) | inhibition at 30 µM [1] | viability at 24 h, 30 µM [2] |
| --- | --- | --- |
| O=c1c(O)c(-c2ccc(O)c(O)c2)oc2cc(O)cc(O)c12 [QUERCETIN] | 76.7% | 99.5% |
| CCCCOC(=O)c1ccccc1NS(=O)(=O)c1ccc(Br)s1 | 34.6% | 104% |
| CCN1C[C@]2(OC(=O)c3ccccc3NC(=O)S(=O)(=O)c3cccc4cccnc34)CC[C@H](OC)[C@]34C1[C@@H](C[C@H]23)[C@@]1(O)C[C@H](OC)[C@H]2C[C@@H]4[C@]1(O)[C@H]2OC | 46.2% | 103% |
| CCOc1ccc(C(=O)Nc2ccccc2C(=O)O[C@@]23CC[C@H](OC)[C@]45C([C@@H](C[C@H]24)[C@@]2(O)C[C@H](OC)[C@H]4C[C@@H]5[C@]2(O)[C@H]4OC)N(CC)C3)cc1 | 53.6% | 101% |
| CCN1C[C@]2(OC(=O)c3ccccc3NC(=O)S(=O)(=O)c3ccccn3)CC[C@H](OC)[C@]34C1[C@@H](C[C@H]23)[C@@]1(O)C[C@H](OC)[C@H]2C[C@@H]4[C@]1(O)[C@H]2OC | 29.9% | 100% |
| CCN1C[C@]2(OC(=O)c3ccccc3NC(=O)S(=O)(=O)c3ccc(C#N)cc3Cl)CC[C@H](OC)[C@]34C1[C@@H](C[C@H]23)[C@@]1(O)C[C@H](OC)[C@H]2C[C@@H]4[C@]1(O)[C@H]2OC | 12.5% | 99.4% |
| CCN1C[C@]2(OC(=O)c3ccccc3NC(=O)c3ccccc3OC)CC[C@H](OC)[C@]34C1[C@@H](C[C@H]23)[C@@]1(O)C[C@H](OC)[C@H]2C[C@@H]4[C@]1(O)[C@H]2OC | 34.2% | 97% |
| CCN1C[C@]2(OC(=O)c3ccccc3NC(=O)S(=O)(=O)c3ccc(C(=O)OC)cc3)CC[C@H](OC)[C@]34C1[C@@H](C[C@H]23)[C@@]1(O)C[C@H](OC)[C@H]2C[C@@H]4[C@]1(O)[C@H]2OC | 15.7% | 104% |
| CCN1C[C@]2(OC(=O)c3ccccc3NC(=O)S(=O)(=O)c3ccccc3C#N)CC[C@H](OC)[C@]34C1[C@@H](C[C@H]23)[C@@]1(O)C[C@H](OC)[C@H]2C[C@@H]4[C@]1(O)[C@H]2OC | 27.5% | 101% |
| CCN1C[C@]2(OC(=O)c3ccccc3NC(=O)S(=O)(=O)c3cc(F)c(F)cc3F)CC[C@H](OC)[C@]34C1[C@@H](C[C@H]23)[C@@]1(O)C[C@H](OC)[C@H]2C[C@@H]4[C@]1(O)[C@H]2OC | 10.5% | 108% |
| CCN1C[C@]2(OC(=O)c3ccccc3NC(=O)S(=O)(=O)c3ccc(C(C)=O)cc3)CC[C@H](OC)[C@]34C1[C@@H](C[C@H]23)[C@@]1(O)C[C@H](OC)[C@H]2C[C@@H]4[C@]1(O)[C@H]2OC | 18% | 92.6% |
| CCN1C[C@]2(OC(=O)c3ccccc3NC(=O)S(=O)(=O)c3ccc4c(c3)CCC4)CC[C@H](OC)[C@]34C1[C@@H](C[C@H]23)[C@@]1(O)C[C@H](OC)[C@H]2C[C@@H]4[C@]1(O)[C@H]2OC | 18.1% | 94.4% |
| CCN1C[C@]2(OC(=O)c3ccccc3NC(=O)S(=O)(=O)c3cccc(OC)c3)CC[C@H](OC)[C@]34C1[C@@H](C[C@H]23)[C@@]1(O)C[C@H](OC)[C@H]2C[C@@H]4[C@]1(O)[C@H]2OC | 23.5% | 102% |
| CCN1C[C@]2(OC(=O)c3ccccc3NC(=O)c3cccc(Cl)c3)CC[C@H](OC)[C@]34C1[C@@H](C[C@H]23)[C@@]1(O)C[C@H](OC)[C@H]2C[C@@H]4[C@]1(O)[C@H]2OC | 12.9% | 104% |
| CCN1C[C@]2(OC(=O)c3ccccc3NC(=O)c3cccc(C#N)c3)CC[C@H](OC)[C@]34C1[C@@H](C[C@H]23)[C@@]1(O)C[C@H](OC)[C@H]2C[C@@H]4[C@]1(O)[C@H]2OC | 12.8% | 101% |
| CCN1C[C@]2(OC(=O)c3ccccc3NC(=O)c3ccc(Cl)cc3)CC[C@H](OC)[C@]34C1[C@@H](C[C@H]23)[C@@]1(O)C[C@H](OC)[C@H]2C[C@@H]4[C@]1(O)[C@H]2OC | 32.3% | 105% |
| CCN1C[C@]2(O)CC[C@H](OC)[C@]34C1[C@@H](C[C@H]23)[C@@]1(O)C[C@H](OC)[C@H]2C[C@@H]4[C@]1(O)[C@H]2OC | 8.8% | 97.4% |
| CCN1C[C@]2(COC(=O)c3ccccc3NS(=O)(=O)c3ccc(Br)s3)CC[C@H](OC)[C@]34C1[C@@H](C[C@H]23)[C@@]1(O)C[C@H](OC)[C@H]2C[C@@H]4[C@]1(O)[C@H]2O | 26.2% | 104% |
